Patent publication US20240415798A1, “COMPOSITIONS AND METHODS FOR TREATING MUCOSITIS” (Enzychem Lifesciences Corporation, priority 2021, published 2024)
“And” between values parts separate entries of the source, which are not always exact repeats. Identical values can stand only once.

Columns and labels:
[1] = tested on: severe oral mucositis (SOM); experiment: Phase 2 clinical study of EC-18 in chemoradiation-induced oral mucositis (efficacy); type: in vivo, human
From the text: Human patients of the following characteristics were enrolled: • 18 years or older • Diagnosis of squamous cell carcinoma of the mouth, oropharynx, hypopharynx or nasopharynx • Planned to receive IMRT with daily fractions of 2.0 Gy to 2.2 Gy to a cumulative dose of at least 60 Gy and a maximum of 72 Gy • Radiation fields to include at least two mucositis sites at risk (buccal mucosa, floor of mouth, ventral and lateral tongue, soft palate) in which both sites receive a minimum cumulative dose of 55 Gy • Planned to receive concomitant single agent chemotherapy with cisplatin
EC-18 was administered in varying patients of the treatment group up to 2000 mg/day. Recommended therapy was 500 mg EC-18 capsule administered 4 times throughout the day (e.g., 2 capsules of 500 mg EC-18 administered within 30 mins after taking breakfast and dinner) for a total daily dosage of 2000 mg EC-18 per day. Treatment protocol lasted 7 weeks while radiation therapy and cisplatin therapy continued during the same time.
(§1) For the study, 25 large institutions and hospitals experienced with head and neck cancer treatment were selected • Stage 1: To Evaluate safety and MTD that can be used for Stage 2 iDSMB: Data and Safety Monitoring Board reviewed safety data every 2 weeks and approved for Stage 2 using MTD 2000 mg. • Stage 2: To Evaluate safety and efficacy 7 weeks Active and 4-6 weeks of STFU until OM is resolved. • 2.0-2.2 Gy daily fraction (5 days a week for 7 weeks) and I week (40 mg/m2) or every 3 weeks (100 mg/m2) cisplatin. • Minimum cumulative radiation dose of 55 Gy.
For Efficacy, measured duration of severe oral mucositis (SOM), Incidence of SOM during active treatment.
In Stage 1, we included Stage 1 placebo and 2000 mg patients to Stage 2 for efficacy analysis: • Placebo group: Stage 1 n=2, Stage 2 n=18: Total: 20 • EC-18 2000 mg group: Stage 1 n=5, Stage 2 n=17: Total: 22

[2] = Phase 2 clinical study of EC-18, safety (SAE/AE, MTD); type: in vivo
Method: as §1
Stage 1 had 17 total SAEs from a total of 24 patients when Stage 2 had 31 total SAEs from a total of 81 patients. 020-018 patient was determined by investigator to be not related to study drug. Many SAEs occurred due to nausea and vomiting which is a normal symptom for chemo treatment

[3] = tested on: TGFβ; experiment: Luminex assay of patient plasma, TGFβ; type: in vivo, human
Method: (§2) The plasma sample collected from the blood of patients listed in (Table 1 below) was thawed and centrifuged at 10,000 rpm at 4° C. for 2 minutes, and the supernatant was used for analysis. The supernatant was serially diluted, and 50 μl of the samples were dispensed to each well in a 96-well plate. 5O μl of diluted Microparticle Cocktail (R&D systems) shown in Table 2 was added to each well containing samples and incubated for 2 hours at room temperature on a shaker at 800 rpm. The sample mixture was removed and washed with 100 μl of washing buffer three times. Then, 50 μL of diluted Biotin-Antibody Cocktail (R&D systems) to each well and incubate for 1 hour at RT on the shaker at 800 rpm, followed by three times of washing with wash buffer. 50 μL of diluted […] at RT on the shaker at 800 rpm. After washing with wash buffer three times, 100 μl of wash buffer was added to each well, and the sample's fluorescence intensity was obtained using a Luminex analyzer (Luminex) within 90 mins.
(§3) Standard, control and the sample was quantitatively analyzed using the average value of the results obtained by duplicate test.
(§4) The absolute value of each sample's mean fluorescence intensity (MFI) was obtained by comparing it to the standard curve. The value derived as an under-standard was marked as 0 because it is a trace value outside the detection range of the assay kit.
(§5) The standard curve was obtained by the best fit method in ‘MasterPlex QT 2010 (MiraiBio, Hitachi, CA, USA)’ to calculate the response measured value (MFI) for each standard concentration, which has the highest R square value among each calculation method (Highest value =1.0). The sample's resultant concentration value was calculated based on this standard curve.

[4] = tested on: IL-1β; experiment: Luminex assay of patient plasma, IL-1β; type: in vivo, human
Method: as §2, §3, §4, §5

[5] = PP population, EC-18 2,000 mg vs placebo
[6] = regardless of the incidence of SOM

## CCCCC/C=C\C/C=C\CCCCCCCC(=O)OC(COC(C)=O)COC(=O)CCCCCCCCCCCCCCC (centres unmarked) [EC-18]
[1]; EC-18 group vs placebo
  reduction of incidence of SOM compared to placebo population: over 35%
[1]; EC-18 up to 2000 mg/day, 7 weeks, with radiation and cisplatin
  therapeutic benefit over the control group: clear therapeutics benefit over the control group
[1]; [5]
  delay of SOM onset compared with placebo: 8 days
  delay of first opioid use vs placebo, mean: 6.3 days
  delay of first opioid use vs placebo, median: 11.5 days
[1]; PP population, EC-18 2,000 mg, placebo 43 days
  time to SOM onset: 51 days
[1]; PP population, baseline through 7-week active treatment period, EC-18 2,000 mg, placebo 65.0%
  incidence of SOM through active treatment period: 36.4%
[1]; PP population, baseline through active treatment period and STFU, EC-18 2000 mg (n=22), placebo 14
  incidence of SOM (number of subjects): 10
[1]; PP population, baseline through active treatment period and STFU, EC-18 2000 mg, placebo 70.0%
  incidence of SOM: 45.5% and 45%
[1]; PP population, evaluable subjects n=8, EC-18 2000 mg, placebo 25.5 days
  time to first use of opioid analgesics, median: 37 days
[1]; PP population, evaluable subjects n=8, EC-18 2000 mg, placebo 26 days
  time to first use of opioid analgesics, mean: 32.3 days
[1]; PP population, weekly intervals, vs placebo
  SOM incidence at each week interval: less than placebo group
[1]; subjects with HPV+, EC-18 2000 mg, placebo 66.7%
  incidence of SOM, HPV+: 35.3%
[1]; subjects with HPV−, EC-18 2000 mg, placebo 71.4%
  incidence of SOM, HPV−: 75%
[1]; subjects with tri-weekly cisplatin, EC-18 2000 mg, placebo 70.0%
  incidence of SOM, tri-weekly cisplatin: 66.7%
[1]; subjects with weekly cisplatin, EC-18 2000 mg, placebo 70.0%
  incidence of SOM, weekly cisplatin: 37.5%
[2]; Stage 1, daily dose, approved for Stage 2
  MTD: 2000 mg
[2]; human, in vivo
  serious adverse events (SAE) across study arms: no appreciable differences in SAEs were observed across the study arms
[2]; human, in vivo, 7 weeks
  attribution of reported AEs: all the reported AEs were attributable to chemoradiation treatment and not to EC-18
[3]; 7th week of chemoradiation therapy
  TGF-β concentration vs placebo, total: significantly higher than the placebo group
[3]; HPV-positive population
  TGF-β concentration vs placebo, HPV-positive: significantly higher compared with placebo
[3]; [6]
  TGF-β concentration vs placebo, with or without SOM: higher compared with the placebo group
[3]; sub-population with tri-weekly cisplatin
  TGFβ concentration vs placebo, tri-weekly cisplatin: not significantly different
[3]; sub-population with weekly cisplatin
  TGF-β concentration vs placebo, cisplatin once a week: significantly higher compared with placebo
[4]; 4th and 7th weeks of treatment
  IL-1β concentration at 4th and 7th weeks: under the detection limit
[4]; regardless of HPV infection state
  IL-1β concentration vs placebo, HPV+/HPV−: significantly lower compared with the placebo group
[4]; [6]
  IL-1β concentration vs placebo, with or without SOM: significantly lower compared with the placebo group
[4]; regardless of the weekly or tri-weekly cisplatin treatment
  IL-1β concentration vs placebo, weekly or tri-weekly cisplatin: significantly lower than in the placebo group
[4]; throughout seven weeks treatment period
  IL-1β concentration vs placebo, total: significantly lower than the placebo group
